Experimental data reported in patent publication US20190115105A1, “TANDEM DUPLICATOR PHENOTYPE (TDP) AS A DISTINCT GENOMIC CONFIGURATION IN CANCER AND USE THEREOF” (The Jackson Laboratory, priority 2016, published 2019).
Like-named read-outs stand apart in the source and are kept apart here. Blank lines part the entries; values can stand above or below the compound they belong to.

Experiments:
HCC1187 [1] = conditions: HCC1187, TNBC, TDP, TDP Score 0.152; GDSC data base; cited from earlier work
HCC2218 = conditions: HCC2218, ERBB2+, non-TDP, TDP Score −0.849; GDSC data base; cited from earlier work
HCC2157 = conditions: HCC2157, TNBC, TDP, TDP Score 0.076; GDSC data base; cited from earlier work
HCC1599 [2] = conditions: HCC1599, TNBC, non-TDP, TDP Score −0.447; GDSC data base; cited from earlier work
HCC1806 = test: Cell viability IC50 (WST-8), HCC1806; format: cell-based, human; conditions: HCC1806, TDP Score 0.08, 72 hours
Text: (§1) All of the cell lines were purchased from the American Type Culture Collection (ATCC). They were authenticated by Short Tandem Repeat (STR) DNA profiling and regularly tested for Mycoplasma contamination using the MycoAlert PLUS Mycoplasma Detection Kit (Lonza). MB436, HCC38, HCC1187, HCC1395, MDA-MB231, HCC1937, HCC1599, HCC1143, HCC70, DU4475, MDA-MB157, HCC1806 were maintained in RPMI with 10% fetal bovine serum (FBS). BT549 was maintained in DMEM with 10% v/v FBS, and Hs578T in DMEM with 10% FBS and 0.01 mg/ml bovine insulin. IC50 value determinations were obtained by plating target cells in 96 well plates at a density of 1-5×10^3 cells per well. After twenty-four hours, cisplatin (Santa Cruz Biotechnology, Inc.) or carboplatin (Selleck Chemicals) were added to the culture medium in half-log serial dilutions in the range of 3.3 nM to 100 μM, in triplicate wells. Cells were incubated for 72 hours before assessing cell viability using the WST-8 assay (Dojindo Molecular Technologies, Inc.). Absorbance values were normalized to control wells (medium only) and IC50 values were calculated using the IC50R package. Two independent replicate experiments were carried out for each cell line and each treatment and the average IC50 value from the two experiments was used for the analysis.

MB231 [3] = test: Cell viability IC50 (WST-8), MB231; format: cell-based, human; conditions: MB231, TDP Score −0.306, 72 hours
Text: as §1

HCC38 [4] = conditions: HCC38, TNBC, TDP, TDP Score 0.367; GDSC data base; cited from earlier work
HCC38 [5] = test: Cell viability IC50 (WST-8), HCC38; format: cell-based, human; conditions: HCC38, TDP Score 0.367, 72 hours
Text: as §1

MB157 = test: Cell viability IC50 (WST-8), MB157; format: cell-based, human; conditions: MB157, TDP Score −0.39, 72 hours
Text: as §1

Hs578T = test: Cell viability IC50 (WST-8), Hs578T; format: cell-based, human; conditions: TDP Score −0.54, 72 hours
Text: as §1

DU4475 = test: Cell viability IC50 (WST-8), DU4475; format: cell-based, human; conditions: DU4475, TDP Score −0.36, 72 hours
Text: as §1

T47D = conditions: ER/PR+, non-TDP, TDP Score −0.269, GDSC data base; cited from earlier work
BT549 = test: Cell viability IC50 (WST-8), BT549; format: cell-based, human; conditions: BT549, TDP Score −0.3, 72 hours
Text: as §1

[6] = tested on: TNBC patient derived xenograft (PDX) models; test: In vivo response in patient derived xenograft (PDX) models of TNBC; parameters: species or system mice; conditions: for association of the TDP with sensitivity in PDX models: same eight TNBC PDX models, data not shown
Text: This hypothesis was explored further by testing in vivo response to cisplatin treatment in eight independent patient derived xenograft (PDX) models of TNBC. […] Thus in both established cell lines and in in vivo patient derived xenografts, TDP status is strongly associated with cisplatin sensitivity.
TNBC patient-derived xenograft models were established at The Jackson Laboratory campus in Sacramento (JAX-West) and tested for cisplatin sensitivity as previously published. All animal procedures were performed under IACUC protocol #12027. Briefly, patient tumor material acquired from biopsy or surgical resection was implanted subcutaneously into the flank of NOD-scid IL2r gamma-chain null female mice (8-10 week-old). Models were considered “established” when log-phase growth in a second passage was evident. Individual tumor-bearing mice were randomized into treatments cohorts of at least six animals each on an accrual basis when tumors reached a volume of 150 mm^3 (day 0), at which point each tumor model was assessed for its response to cisplatin treatment, administrated at a dose of 2 mg/kg body weight and following a three-week regimen consisting of one IV injection per week. Changes in tumor volumes were measured twice a week for four full weeks from the beginning of the treatment or until tumor volumes reached the 1500 mm^3 endpoint. Treatment outcome was evaluated in terms of total response (percentage of tumor shrinkage/growth at day 20 relative to day 0). The […] TNBC PDX models that were available as part of The Jackson Laboratory inventory of TNBC PDX Live™ tumor-bearing mice were analyzed. In combination with a high number of replicates per model (6-10 animals per treatment arm), enough power to observe the statistically significant effect of the TDP configuration on cisplatin response was obtained.

HCC1187 [7] = test: Cell viability IC50 (WST-8), HCC1187; format: cell-based, human; conditions: HCC1187, TDP Score 0.152, 72 hours
Text: as §1

HCC1599 [8] = test: Cell viability IC50 (WST-8), HCC1599; format: cell-based, human; conditions: HCC1599, TDP Score −0.447, 72 hours
Text: as §1

HCC1954 = conditions: HCC1954, ERBB2+, non-TDP, TDP Score −0.434; GDSC data base; cited from earlier work
MB436 = test: Cell viability IC50 (WST-8), MB436; format: cell-based, human; conditions: MB436, TDP Score 0.469, 72 hours
Text: as §1

MB231 [9] = conditions: MB231, TNBC, non-TDP, TDP Score −0.306; GDSC data base; cited from earlier work
HCC1143 = test: Cell viability IC50 (WST-8), HCC1143; format: cell-based, human; conditions: HCC1143, TDP Score −0.424, 72 hours
Text: as §1

HCC1395 [10] = test: Cell viability IC50 (WST-8), HCC1395; format: cell-based, human; conditions: HCC1395, TDP Score 0.118, 72 hours
Text: as §1

HCC1937 [11] = conditions: HCC1937, TNBC, non-TDP, TDP Score −0.17; GDSC data base; cited from earlier work
HCC1395 [12] = conditions: HCC1395, TNBC, TDP, TDP Score 0.118; GDSC data base; cited from earlier work
HCC1937 [13] = test: Cell viability IC50 (WST-8), HCC1937; format: cell-based, human; conditions: HCC1937, TDP Score −0.17, 72 hours
Text: as §1

HCC70 = test: Cell viability IC50 (WST-8), HCC70; format: cell-based, human; conditions: HCC70, TDP Score −0.3, 72 hours
Text: as §1

MCF-7 = conditions: MCF-7, ER/PR+, TDP, TDP Score 0.385; GDSC data base; cited from earlier work

Compound: Cc1cc(N2CCOCC2)cc2[nH]c(-c3c(NC[C@@H](O)c4cccc(Cl)c4)cc[nH]c3=O)nc12 [BMS-536924]
IC50 Ln (μM) (HCC1187 [1]): 2.81 Ln (μM)
IC50 Ln (μM) (HCC2218): 6.22 Ln (μM)
IC50 Ln (μM) (HCC2157): 3.64 Ln (μM)
IC50 Ln (μM) (HCC1599 [2]): 5.27 Ln (μM)

Compound: N.N.[Cl][Pt][Cl] [Cisplatin, cisplatin]
IC50 Ln (μM) (HCC1806): 2.76 Ln (μM)
IC50 Ln (μM) (MB231 [3]): 3.52 Ln (μM)
IC50 Ln (μM) (HCC1187 [1]): 4.76 Ln (μM)
IC50 Ln (μM) (HCC38 [4]): 5.07 Ln (μM)
IC50 Ln (μM) (HCC38 [5]): 2.8 Ln (μM)
IC50 Ln (μM) (MB157): 2.62 Ln (μM)
IC50 Ln (μM) (HCC2218): 5.99 Ln (μM)
IC50 Ln (μM) (Hs578T): 3.62 Ln (μM)
IC50 Ln (μM) (DU4475): 2.04 Ln (μM)
IC50 Ln (μM) (T47D): 4.86 Ln (μM)
IC50 Ln (μM) (BT549): 2.28 Ln (μM)
tumor growth compared to the vehicle arm ([6]; all five TDP PDX models, three-week regimen, 2 mg/kg IV weekly): significant reduction in tumor growth
tumor shrinkage of individual tumors (partial response) ([6]; four out of the five TDP PDX models, three-week regimen, 2 mg/kg, one IV injection per week): > 80%
reduction in tumor volume after three weeks of treatment ([6]; three non-TDP PDX models, 2 mg/kg IV weekly): none of the three non-TDP models analyzed exhibited a reduction in tumor volume
response compared to the vehicle arm ([6]; three non-TDP PDX models, three-week regimen, 2 mg/kg IV weekly): only one out of the three models showed a significant response
IC50 Ln (μM) (HCC1187 [7]): 2.15 Ln (μM)
IC50 Ln (μM) (HCC1599 [8]): 2.65 Ln (μM)
IC50 Ln (μM) (HCC1954): 6.94 Ln (μM)
IC50 Ln (μM) (MB436): 1.17 Ln (μM)
IC50 Ln (μM) (MB231 [9]): 5.57 Ln (μM)
IC50 Ln (μM) (HCC1143): 3.3 Ln (μM)
IC50 Ln (μM) (HCC1395 [10]): 2.4 Ln (μM)
IC50 Ln (μM) (HCC1937 [11]): 4.92 Ln (μM)
IC50 Ln (μM) (HCC1395 [12]): 4.96 Ln (μM)
IC50 Ln (μM) (HCC1937 [13]): 3.22 Ln (μM)
IC50 Ln (μM) (HCC70): 2.75 Ln (μM)

Compound: Nc1ccn([C@@H]2O[C@H](CO)[C@@H](O)[C@@H]2O)c(=O)n1 [Cytarabine]
IC50 Ln (μM) (HCC1187 [1]): 3.36 Ln (μM)
IC50 Ln (μM) (HCC38 [4]): 0.63 Ln (μM)
IC50 Ln (μM) (HCC2218): 4.68 Ln (μM)
IC50 Ln (μM) (T47D): 3.47 Ln (μM)
IC50 Ln (μM) (HCC1954): 3.41 Ln (μM)
IC50 Ln (μM) (MCF-7): 0.69 Ln (μM)
IC50 Ln (μM) (MB231 [9]): 2.18 Ln (μM)
IC50 Ln (μM) (HCC1937 [11]): 3.32 Ln (μM)
IC50 Ln (μM) (HCC1395 [12]): 1.1 Ln (μM)

Compound: COc1cc(N2CCC(N3CCN(C)CC3)CC2)ccc1Nc1ncc(Cl)c(Nc2ccccc2S(=O)(=O)C(C)C)n1 [NVP-TAE684]
IC50 Ln (μM) (HCC1187 [1]): 0.62 Ln (μM)
IC50 Ln (μM) (HCC2218): 5.37 Ln (μM)
IC50 Ln (μM) (HCC2157): 0.38 Ln (μM)
IC50 Ln (μM) (HCC1599 [2]): 2.98 Ln (μM)

IC50 Ln (μM) (HCC1806): 2.40 Ln (μM)
IC50 Ln (μM) (HCC38 [5]): 1.99 Ln (μM)
IC50 Ln (μM) (BT549): 3.09 Ln (μM)
IC50 Ln (μM) (HCC1187 [7]): 3.57 Ln (μM)
IC50 Ln (μM) (HCC1143): 4.57 Ln (μM)
IC50 Ln (μM) (HCC1395 [10]): 4.28 Ln (μM)
IC50 Ln (μM) (HCC1937 [13]): 4.51 Ln (μM)
Compound: O=C(c1cc(Cc2n[nH]c(=O)c3ccccc23)ccc1F)N1CCN(C(=O)C2CC2)CC1 [Olaparib, olaparib]
IC50 Ln (μM) (MB231 [3]): 3.49 Ln (μM)
IC50 Ln (μM) (MB157): 3.16 Ln (μM)
IC50 Ln (μM) (Hs578T): 4.61 Ln (μM)
IC50 Ln (μM) (MB436): 3.77 Ln (μM)
IC50 Ln (μM) (HCC70): 4.19 Ln (μM)

Compound: CC(=O)O[C@@]12CO[C@@H]1C[C@H](O)[C@@]1(C)C(=O)[C@H](O)C3=C(C)[C@@H](OC(=O)[C@H](O)[C@@H](NC(=O)OC(C)(C)C)c4ccccc4)C[C@@](O)([C@@H](OC(=O)c4ccccc4)[C@H]21)C3(C)C [docetaxel]
association of the TDP with sensitivity in PDX models [6]: not associated with sensitivity

Compound: COc1cccc2c1C(=O)c1c(O)c3c(c(O)c1C2=O)C[C@@](O)(C(=O)CO)C[C@@H]3O[C@H]1C[C@H](N)[C@H](O)[C@H](C)O1 [doxorubicin]
association of the TDP with sensitivity in PDX models [6]: not associated with sensitivity
